Data taken from patent publication US11208376B2, “Use of a metal supplement in animal feed” (Nouryon Chemicals International B.V., priority 2009, dated 2021).
Marks after values point to notes of the source that are not given here.

Tests used:
[1] = Precipitation test of copper sources with two-fold molar excess of phytic acid, soluble Cu by FAAS; format: physicochemical; conditions: one day at ambient temperature
Procedure: The following 3 concentrations of the final metal concentration were tested, i.e. high (H) at 25 mmol/kg, medium (M) at 5 mmol/kg, and low (L) at 0.5 mmol/kg. For each concentration and pH a separate phytic acid stock solution was prepared by diluting the calculated amount of phytic acid with de-mineralized water, setting the pH with diluted NH4OH solutions, and filling up with demineralized water up to the calculated amount. […] The pH was adjusted to 4.97 with 0.5 M H2SO4. Then an equal number of 0.0125 mol/kg solutions were prepared by diluting the above solutions with demineralized water. […] On all 4 zinc-containing and 3 copper-containing solutions in total 6 precipitation tests were carried out, i.e. at levels H, M, and L and for each level at pH=4 and at pH=6. These tests were marked H4, H6, M4, M6, L4, and L6, respectively. In total 42 samples were obtained in this way. After standing for one day the precipitate was removed and the mother liquor was analyzed for its zinc or copper content by FAAS (Flame Atomic Absorption Spectroscopy). […] The total weight was exactly determined again. The 50 ml test tubes were filled according to Table 1 below.

[2] = Precipitation test of zinc sources with two-fold molar excess of phytic acid, soluble Zn by FAAS; format: physicochemical; conditions: for Soluble Zn(II) after subjecting complexed or chelated Zn(II) to a two-fold molar excess of phytic acid: one day at ambient temperature
Procedure: The following 3 concentrations of the final metal concentration were tested, i.e. high (H) at 25 mmol/kg, medium (M) at 5 mmol/kg, and low (L) at 0.5 mmol/kg. For each concentration and pH a separate phytic acid stock solution was prepared by diluting the calculated amount of phytic acid with de-mineralized water, setting the pH with diluted NH4OH solutions, and filling up with demineralized water up to the calculated amount. […] The pH was not adjusted any further. Then an equal number of 0.0125 mol/kg solutions were prepared by diluting the above solutions with demineralized water. […] On all 4 zinc-containing and 3 copper-containing solutions in total 6 precipitation tests were carried out, i.e. at levels H, M, and L and for each level at pH=4 and at pH=6. These tests were marked H4, H6, M4, M6, L4, and L6, respectively. In total 42 samples were obtained in this way. After standing for one day the precipitate was removed and the mother liquor was analyzed for its zinc or copper content by FAAS (Flame Atomic Absorption Spectroscopy). […] The total weight was exactly determined again. The 50 ml test tubes were filled according to Table 1 below.

[3] = without the presence of phytate; result in words
Procedure: A small excess of 2% of the complexing or chelating agent intake was used to prepare the metal-containing solutions. This ensures a complete complexation or chelation of the metal ions. The mixture was dissolved in part of the demineralized water. The pH was adjusted in order to reach a pH value between approximately 4 and 5. All solutions were filled up with demineralized water to 400 g.

[4] = H4: pH 4, metal 25 mmol/kg, phytic acid 50 mmol/kg
[5] = H6: pH 6, metal 25 mmol/kg, phytic acid 50 mmol/kg
[6] = L4: pH 4, metal 0.5 mmol/kg, phytic acid 1 mmol/kg
[7] = L6: pH 6, metal 0.5 mmol/kg, phytic acid 1 mmol/kg
[8] = M4: pH 4, metal 5 mmol/kg, phytic acid 10 mmol/kg
[9] = M6: pH 6, metal 5 mmol/kg, phytic acid 10 mmol/kg

With `O=S(=O)([O-])[O-].[Cu+2]` [CuSO4] the “Soluble Cu(II) after subjecting complexed or chelated Cu(II) to a two-fold molar excess of phytic acid” value [1, 4] was 64* % (mol/mol), the “Soluble Cu(II) after subjecting complexed or chelated Cu(II) to a two-fold molar excess of phytic acid” value [1, 5] was 26* % (mol/mol) and the “Soluble Cu(II) after subjecting complexed or chelated Cu(II) to a two-fold molar excess of phytic acid” value [1, 6] was 97 % (mol/mol). For the same compound, the “Soluble Cu(II) after subjecting complexed or chelated Cu(II) to a two-fold molar excess of phytic acid” value [1, 7] was 80 % (mol/mol), the “Soluble Cu(II) after subjecting complexed or chelated Cu(II) to a two-fold molar excess of phytic acid” value [1, 8] was 97* % (mol/mol) and the “Soluble Cu(II) after subjecting complexed or chelated Cu(II) to a two-fold molar excess of phytic acid” value [1, 9] was 36* % (mol/mol).

With `CSCC[C@H](N)C(=O)[O-].CSCC[C@H](N)C(=O)[O-].[Zn+2]` [Zn(Methionine)2] the “Soluble Zn(II) after subjecting complexed or chelated Zn(II) to a two-fold molar excess of phytic acid” value [2, 4] was 21* % (mol/mol), the “Soluble Zn(II) after subjecting complexed or chelated Zn(II) to a two-fold molar excess of phytic acid” value [2, 5] was 32* % (mol/mol) and the “Soluble Zn(II) after subjecting complexed or chelated Zn(II) to a two-fold molar excess of phytic acid” value [2, 6] was 99 % (mol/mol). For the same compound, the “Soluble Zn(II) after subjecting complexed or chelated Zn(II) to a two-fold molar excess of phytic acid” value [2, 7] was 63 % (mol/mol), the “Soluble Zn(II) after subjecting complexed or chelated Zn(II) to a two-fold molar excess of phytic acid” value [2, 8] was 55* % (mol/mol) and the “Soluble Zn(II) after subjecting complexed or chelated Zn(II) to a two-fold molar excess of phytic acid” value [2, 9] was 13* % (mol/mol). The “Appearance (clear solution or precipitate) of zinc source combined with phytic acid” value ([2]; levels H, M, L, result in words) was “immediately a precipitate was formed”.

With `CSCC[C@H](N)C(=O)O.[Cu]` [copper methionine] the Solubility in water [3] was “insoluble in water”.
